Experimental findings from US20250206751A1, “HETEROCYCLIC COMPOUND FOR INDUCING DEGRADATION OF G12D MUTANT KRAS PROTEIN” (Astellas Pharma Inc., priority 2022, published 2025) are described below.

In general, IC50 refers to the concentration needed to halve the response being measured.

SMILES strings stand for the structures.

The subject of test [1] is phosphorylation of threonine 202 (Thr202) and tyrosine 204 (Tyr204) of ERK. The test can be described thus: ERK phosphorylation inhibitory effect by Cell ELISA in AsPC-1 (Test Example 2). Format: cell-based, human. The note with it: Homo sapiens, ASPC1, AsPC-1 cells, cultured overnight with compound; 1 μM trametinib taken as 0%. On the procedure: Test Example 2: Evaluation of ERK Phosphorylation Inhibitory Effect on Human G12D Mutant KRAS-Positive Pancreatic Cancer Line AsPC-1
The ERK phosphorylation inhibitory effect of test compounds was evaluated by measuring phosphorylation of threonine 202 (Thr202) and tyrosine 204 (Tyr204) of ERK located downstream of the KRAS signal by Cell ELISA.
AsPC-1 cells were seeded on 384-well plates at 36 μL/well to give 2.0×10^4 cells per well. As for the cell culture conditions, RPMI 1640 medium containing 10% fetal bovine serum was used in the presence of 5% CO2 at 37° C.
The next day, the test compounds (10 points having final concentrations in the range of 10 μM to 0.3 nM), trametinib (MEK inhibitor) of a final concentration of 1 μM as positive control and DMSO, which was the solvent for the test compounds, as negative control were diluted 100-fold with a fresh medium and were added at 4 μL per well. The cells were cultured overnight. After culturing, 30% glyoxal solution (40% glyoxal [from Nacalai Tesque] was diluted with PBS) was quickly added at 30 μL per well, and the plate was allowed to stand for 60 minutes at room temperature to thus immobilize the cells. Then, the plate was centrifuged to remove the supernatant (using a centrifugal dehydrator machine, the supernatant was removed by the same method hereinafter), and 0.1% Triton X-100-containing PBS was added at 20 μL per well. After allowing to stand for 10 minutes at room temperature, the supernatant was removed, and the same operation was further repeated. Next, 0.5% SDS-containing PBS was added at 20 μL per well, and after allowing to stand at room temperature for 30 minutes, the supernatant was removed. Subsequently, blocking solution (Intercept Blocking Buffer) was added at 20 μL per well, and the plate was allowed to stand for 1 hour at room temperature. The supernatant was removed, and an ERK (Thr202/Tyr204) phosphorylation antibody (Phospho-p44/42 MAPK (Erk 1/2) (Thr202/Tyr204) (D13.14.4E) XP Rabbit mAb; from Cell Signaling Technology) diluted 2,500-fold with blocking solution was added at 15 μL per well as a primary antibody. The plates were allowed to stand at 4° C. overnight.
The next day, the supernatant was removed. 0.05% Tween-20 (from Thermo Fisher Scientific)-containing PBS was added at 50 μL per well, and the supernatant was removed to thus wash each well. The washing was performed three times in total. After washing, Goat anti-Rabbit IgG H&L (IRDye 800CW) diluted 1,000-fold with blocking solution was added at 15 μL per well as a secondary antibody, and the plates were allowed to stand for 1 hour at room temperature. The supernatant was removed, and each well was washed three times with 0.05% Tween-20-containing PBS in the same manner as after the primary antibody reaction. After removing the supernatant, the plates were dried with air at room temperature for 3 hours or more, and the 800-nm fluorescent signals were measured with Aerius.
With the signaling value at the time of addition of DMSO taken as 100% and with the signaling value at the time of addition of 1 μM trametinib taken as 0%, the 50% inhibitory concentration values (IC50) were calculated by Sigmoid-Emax nonlinear regression analysis.
(An ELISA detects its analyte on a solid surface through an enzyme-linked reagent.)

Another test has as its target T1, KRAS G12D protein (Homo sapiens, UniProt P01116, G12D).
T1 construct: host or cells: AsPC-1
The test can be described thus: KRAS degradation activity by Cell ELISA in AsPC-1 (Test Example 1). It is filed as cell-based. The note with it: AsPC-1 cells, cultured overnight with compound, corrected with β-actin, read-out: DC50 (50% degradation concentration of the amounts of KRAS). The procedure:
Test Example 1: Evaluation of KRAS Degradation Activity on Human G12D Mutant KRAS-Positive Pancreatic Cancer Line AsPC-1 (CRL-1682; ATCC)
The KRAS degradation activity of test compounds was evaluated by measuring the expression levels of KRAS G12D protein by Cell ELISA.
AsPC-1 cells were seeded at 20 μL per well on 384-well plates (from Greiner bio-one) to give 2.0×10^4 cells per well. As for the cell culture conditions, RPMI 1640 (from Sigma-Aldrich) medium containing 10% fetal bovine serum (from Cytiva) was used in the presence of 5% CO2 at 37° C.
The next day, the test compounds (10 points having final concentrations in the range of 10 μM to 0.3 nM) and DMSO (from FUJIFILM Wako Pure Chemical Corporation), which was the solvent for the test compounds, as a negative control were diluted 500-fold with a fresh medium and were added at 20 μL per well. The cells were cultured overnight.
The next day, the culture supernatant was removed, and 4% paraformaldehyde phosphate buffer (from FUJIFILM Wako Pure Chemical Corporation) was added at 20 μL per well. The plates were allowed to stand for 30 minutes at room temperature to thus immobilize the cells. Then, the supernatant was removed, and 0.1% Triton X-100 (from Amersham Biosciences)-containing Phosphate buffered saline (PBS; from FUJIFILM Wako Pure Chemical Corporation) was added at 20 μL per well. After allowing to stand for 10 minutes at room temperature, the supernatant was removed. PBS was added at 25 μL per well, and the supernatant was removed to thus wash each well. The washing was performed twice in total. Next, the supernatant was removed, and 0.5% sodium dodecyl sulfate (SDS; from Invitrogen)-containing PBS was added at 20 μL per well. After allowing to stand at room temperature for 10 minutes, the supernatant was removed by a centrifugal operation (using a centrifugal dehydrator machine, the supernatant was removed by the same method hereinafter). PBS was added at 25 μL per well, and the supernatant was removed to thus wash each well. The washing was performed twice in total. The supernatant was removed, and blocking solution (Intercept Blocking Buffer; from Li-COR Biosciences) was added at 20 μL per well. After allowing to stand for 30 minutes at room temperature, the supernatant was removed, and a solution obtained by diluting anti-β-actin antibody (Anti-beta Actin antibody [mAbcam 8226]-Loading Control; from abcam) 1,000-fold with blocking solution and a solution obtained by diluting anti-Ras (G12D Mutant Specific) antibody (Ras (G12D Mutant Specific) (D8H7) Rabbit mAb #14429; from Cell Signaling Technology) and anti-β-actin antibody (from abcam) 1,000-fold with blocking solution were respectively added to positive control wells and the other wells at 20 μL per well as a primary antibody. The plate was allowed to stand overnight at 4° C.
The next day, the supernatant was removed. PBS was added at 25 μL per well, and the supernatant was removed to thus wash each well. The washing was performed twice in total. The supernatant was removed, and a solution obtained by diluting Donkey anti-Mouse IgG H&L (IRDye 680RD) (from Li-COR Biosciences) and Goat anti-Rabbit IgG H&L (IRDye 800CW) (from Li-COR Biosciences) 1,000-fold with blocking solution was added at 20 μL per well as a secondary antibody. After allowing to stand for 1 hour at room temperature, the supernatant was removed. PBS was added at 25 μL per well, and the supernatant was removed to thus wash each well. The washing was performed twice in total. After removing the supernatant, the plate was dried with air at room temperature for 2 hours or more, and the 700 nm and 800 nm fluorescent signals were measured with Aerius (from Li-COR Biosciences). […]

The subject of test [2] is human G12D mutant KRAS-positive pancreatic cancer line AsPC-1. The test can be described thus: Non-anchorage-dependent cell growth inhibition, spheroid 3D cell culture (Test Example 3). It is filed as cell-based. The settings on record: Homo sapiens, ASPC1, 144 h, AsPC-1 spheroid 3D culture, 6 days, CellTiter Glo 2.0. The procedure:
Test Example 3: Evaluation of Non-Anchorage-Dependent Cell Growth Inhibitory Effect on Human G12D Mutant KRAS-Positive Pancreatic Cancer Line AsPC-1
The non-anchorage-dependent cell growth inhibitory effect of test compounds was evaluated by spheroid 3D cell culture.
AsPC-1 cells were seeded on low-cell-adhesive round bottom 384-well plates (PrimeSurface: from Sumitomo Bakelite) at 36 μL/well to give 5×10^2 cells per well. As for the cell culture conditions, RPMI 1640 medium containing 10% fetal bovine serum was used in the presence of 5% CO2 at 37° C.
The next day, the test compounds (10 or 6 points having final concentrations in the range of 10 μM to 0.3 nM) and DMSO, which was the solvent for the test compounds, as a negative control were diluted 100-fold with a fresh medium and were added at 4 μL per well. After culturing in the presence of 5% CO2 at 37° C. for 6 days, CellTiter Glo 2.0 (from Promega) was added at 20 μL per well. After stirring with a plate mixer (from FINEPCR) at room temperature for 1 hour, the luminescent signals were measured with ARVO X3 (from PerkinElmer).
With the signaling value in treatment with DMSO taken as 100% and with the signaling value in the medium alone without cells taken as 0%, the 50% inhibitory concentration values (IC50) were calculated by Sigmoid-Emax nonlinear regression analysis.
For orientation: ATP-based viability assays read luminescence as a measure of living cells.

T1 sequence (P01116 1-188 isoform P01116-2 G12D): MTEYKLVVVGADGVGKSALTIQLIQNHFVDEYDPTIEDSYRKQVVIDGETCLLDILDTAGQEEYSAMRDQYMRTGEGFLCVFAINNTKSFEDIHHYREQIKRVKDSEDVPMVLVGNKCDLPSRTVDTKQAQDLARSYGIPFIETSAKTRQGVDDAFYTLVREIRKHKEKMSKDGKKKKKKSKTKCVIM

Consider `CCn1nccc1-c1ccc([C@H](CO)NC(=O)[C@@H]2C[C@@H](O)CN2C(=O)[C@H](C(C)C)n2cc(-c3ccc(COc4c(-c5c(C)c(F)cc6[nH]ncc56)c(C5CC5)cc5c(N(C)[C@H]6CCNC6)nc(OC[C@@H]6CCCO6)nc45)cc3)nn2)cc1` (atropisomer, axis not shown) [Example 26], for which the IC50 in test [1] is 2 nM; in test [2], 3 nM. The DC50 at KRAS G12D protein was 22 nM.

Turning to `Cc1c(F)cc2[nH]ncc2c1-c1c(C2CC2)cc2c(N(C)[C@H]3CCNC3)cc(OC[C@@H]3CCCO3)nc2c1OCc1ccc(-c2cn([C@H](C(=O)N3C[C@H](O)C[C@H]3C(=O)N[C@@H](CO)c3ccc(-n4ccnc4C)cc3)C(C)C)nn2)cc1` (atropisomer, axis not shown) [Example 27], the IC50 in test [1] and in test [2] was 7 nM in each case. Also, the DC50 at KRAS G12D protein was found to be 68 nM.

For the compound `Cc1ncoc1-c1ccc([C@H](CO)NC(=O)[C@@H]2C[C@@H](O)CN2C(=O)[C@H](C(C)C)n2cc(-c3ccc(COc4c(-c5c(C)c(F)cc6[nH]ncc56)c(C5CC5)cc5c(N(C)[C@H]6CCNC6)nc(OC[C@@H]6CCCO6)nc45)cc3)nn2)cc1` (atropisomer, axis not shown) [Example 28], the half-maximal inhibitory concentration (IC50) in test [1] and in test [2] was 5 nM throughout. Moreover, the DC50 at KRAS G12D protein was 47 nM.

In the case of `CCn1nccc1-c1ccc([C@H](CO)NC(=O)[C@@H]2C[C@@H](O)CN2C(=O)[C@H](C(C)C)n2cc(-c3ccc(COc4c(-c5c(C)c(F)cc6[nH]ncc56)c(C5CC5)cc5c(N(C)[C@H]6CCNC6)nc(OC[C@H]6CCCO6)nc45)cc3)nn2)cc1` (atropisomer, axis not shown) [Example 29], the values for the IC50 in test [1] and in test [2] were 6 nM and 7 nM, respectively. Besides, the DC50 on KRAS G12D protein amounted to 20 nM.

Turning to `Cc1c(F)cc2[nH]ncc2c1-c1c(C2CC2)cc2c(N(C)[C@H]3CCNC3)nc(OC[C@H]3CCCO3)nc2c1OCc1ccc(-c2cn([C@H](C(=O)N3C[C@H](O)C[C@H]3C(=O)N[C@@H](CO)c3ccc(-n4ccnc4C)cc3)C(C)C)nn2)cc1` (atropisomer, axis not shown) [Example 30], the IC50 was 10 nM in test [1] and 12 nM in test [2]. Further, the DC50 at KRAS G12D protein was 121 nM.

On to `Cc1ncoc1-c1ccc([C@H](CO)NC(=O)[C@@H]2C[C@@H](O)CN2C(=O)[C@H](C(C)C)n2cc(-c3ccc(COc4c(-c5c(C)c(F)cc6[nH]ncc56)c(C5CC5)cc5c(N(C)[C@H]6CCNC6)nc(OC[C@H]6CCCO6)nc45)cc3)nn2)cc1` (atropisomer, axis not shown) [Example 31], for which the figures for the IC50 in test [1] and in test [2] were 20 nM and 18 nM, respectively. The DC50 at KRAS G12D protein turned out to be 59 nM.

As to `CCn1nccc1-c1ccc([C@H](CO)NC(=O)[C@@H]2C[C@@H](O)CN2C(=O)[C@H](C(C)C)n2cc(-c3ccc(COc4c(-c5c(C)c(F)cc6[nH]ncc56)c(C5CC5)cc5c(N(C)[C@H]6CCNC6)nc(OC[C@H]6CCCO6)nc45)cc3)nn2)nc1` (atropisomer, axis not shown) [Example 32], the IC50 stood at 37 nM in test [1] and 24 nM in test [2]. Besides, on KRAS G12D protein, the DC50 was determined as 51 nM.

In the case of `Cc1ncsc1-c1ccc([C@H](CO)NC(=O)[C@@H]2C[C@@H](O)CN2C(=O)[C@H](C(C)C)n2cc(-c3ccc(COc4c(-c5c(C)c(F)cc6[nH]ncc56)c(C5CC5)cc5c(N(C)[C@H]6CCNC6)nc(OCC(C)(C)F)nc45)cc3)nn2)cc1` (atropisomer, axis not shown) [Example 33], the half-inhibitory concentration (IC50) in test [1] turned out to be 45 nM; in test [2] it was 24 nM. For the same compound, at KRAS G12D protein, the DC50 stood at 33 nM.

`Cc1ncsc1-c1ccc([C@H](CO)NC(=O)[C@@H]2C[C@@H](O)CN2C(=O)[C@H](C(C)C)n2cc(-c3ccc(COc4c(-c5c(C)c(F)cc6[nH]ncc56)c(C5CC5)cc5c(N(C)[C@H]6CCNC6)nc(OCC(C)C)nc45)cc3)nn2)cc1` (atropisomer, axis not shown) [Example 34]: the half-maximal inhibitory concentration (IC50) stood at 21 nM in test [1] and 13 nM in test [2]. The DC50 at KRAS G12D protein amounted to 53 nM.

For the compound `Cc1ncsc1-c1ccc([C@H](CO)NC(=O)[C@@H]2C[C@@H](O)CN2C(=O)[C@H](C(C)C)n2cc(-c3ccc(COc4c(-c5c(C)c(F)cc6[nH]ncc56)c(C5CC5)cc5c(N(C)[C@H]6CCNC6)nc(OC[C@H](C)F)nc45)cc3)nn2)cc1` (atropisomer, axis not shown) [Example 35], the results for the IC50 in test [1] and in test [2] were 12 nM and 9 nM, respectively. Also, the DC50 at KRAS G12D protein turned out to be 63 nM.
